Each structure is given as a SMILES string. ± gives the standard deviation of the averaged measurements.

This test deals with RD-ES. Nature of the test: relative viability vs DMSO control (72 h) (fraction); higher = more viable cells. Put shortly: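 Percent growth from ATPLite readings, averaged over up to triplicate wells, was used as relative viability. Sarcoma cell lines were seeded into 384-well plates for 80–90% confluence, dosed after 24 h, and kept 72 h at 37 °C, 5% CO2. Data were rescaled to a range where 1 is full and 0 is none.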

On to `CC[C@H](Nc1ncnc2[nH]cnc12)c1nc2cccc(F)c2c(=O)n1-c1ccccc1` [Idelalisib], for which the relative viability is, setting by setting: (0.00017 µM) 0.9939 ± 0.0089; (0.00051 µM) 0.99 ± 0.033; (0.00152 µM) 0.977 ± 0.04; (0.00457 µM) 0.984 ± 0.037; (0.01372 µM) 0.977 ± 0.033; (0.04115 µM) 0.98 ± 0.019. The relative viability came out at 0.982 ± 0.028 (0.1235 µM); 0.97 ± 0.027 (0.3704 µM); 0.909 ± 0.026 (1.111 µM); 0.88 ± 0.034 (3.333 µM); 0.744 ± 0.019 (10 µM).

In the case of `Cc1cc(Nc2ncnc3ccc(NC4=NC(C)(C)CO4)cc23)ccc1Oc1ccn2ncnc2c1` [Tucatinib], the relative viability by setting is: (0.00017 µM) 0.989 ± 0.03; (0.00051 µM) 0.999 ± 0.035; (0.00152 µM) 1 ± 0.027; (0.00457 µM) 1 ± 0.035; (0.01372 µM) 0.95 ± 0.055; (0.04115 µM) 0.996 ± 0.027. Besides, the relative viability is, setting by setting: (0.1235 µM) 0.991 ± 0.014; (0.3704 µM) 0.974 ± 0.02; (1.111 µM) 0.985 ± 0.037; (3.333 µM) 0.983 ± 0.031; (10 µM) 0.9422 ± 0.0042.

Regarding `Cn1cc(-c2cc3c(N4CCN(c5ncc([C@@](C)(N)c6ccc(F)cc6)cn5)CC4)ncnn3c2)cn1` [Avapritinib], the relative viability runs as follows: (0.00017 µM) 0.927 ± 0.028; (0.00051 µM) 0.928 ± 0.034; (0.00152 µM) 0.934 ± 0.015; (0.00457 µM) 0.922 ± 0.026; (0.01372 µM) 0.936 ± 0.02; (0.04115 µM) 0.932 ± 0.013. The same molecule returned a relative viability (0.1235 µM) of 0.9089 ± 0.0059; a relative viability (0.3704 µM) of 0.884 ± 0.025; a relative viability (1.111 µM) of 0.84 ± 0.044; a relative viability (3.333 µM) of 0.787 ± 0.047; a relative viability (10 µM) of 0.716 ± 0.012.

On to `CC(C)(C)c1cc(NC(=O)Nc2ccc(-c3cn4c(n3)sc3cc(OCCN5CCOCC5)ccc34)cc2)no1` [Quizartinib], for which the relative viability (0.00017 µM) was 0.968 ± 0.018; the relative viability (0.00051 µM) stood at 0.983 ± 0.028; the relative viability (0.00152 µM) is 0.993 ± 0.018; the relative viability (0.00457 µM) was found to be 0.9932 ± 0.0065; the relative viability (0.01372 µM) was found to be 0.993 ± 0.011; the relative viability (0.04115 µM) came to 0.995 ± 0.005. Further, the relative viability reads like this: (0.1235 µM) 0.986 ± 0.02; (0.3704 µM) 1 ± 0.025; (1.111 µM) 0.991 ± 0.019; (3.333 µM) 0.951 ± 0.043; (10 µM) 0.869 ± 0.035.

Turning to `O=C(Nc1cnn2ccc(N3CCC[C@@H]3c3cc(F)ccc3F)nc12)N1CC[C@H](O)C1` [Larotrectinib], the relative viability by setting is: (0.00017 µM) 0.95 ± 0.031; (0.00051 µM) 0.963 ± 0.01; (0.00152 µM) 0.978 ± 0.05; (0.00457 µM) 0.961 ± 0.024; (0.01372 µM) 0.9532 ± 0.0046; (0.04115 µM) 0.976 ± 0.016. In addition, the relative viability is, setting by setting: (0.1235 µM) 0.961 ± 0.013; (0.3704 µM) 0.964 ± 0.014; (1.111 µM) 0.968 ± 0.022; (3.333 µM) 0.931 ± 0.052; (10 µM) 0.932 ± 0.042.

As for `Cc1nc(-c2cn3c(n2)-c2ccc(-c4cnn(C(C)(C)C(N)=O)c4)cc2OCC3)n(C(C)C)n1` [Taselisib], the relative viability is, setting by setting: (0.00017 µM) 0.992 ± 0.028; (0.00051 µM) 0.983 ± 0.033; (0.00152 µM) 0.962 ± 0.026; (0.00457 µM) 0.949 ± 0.019; (0.01372 µM) 0.851 ± 0.044; (0.04115 µM) 0.694 ± 0.01. In addition, the relative viability reads like this: (0.1235 µM) 0.556 ± 0.0063; (0.3704 µM) 0.472 ± 0.0073; (1.111 µM) 0.426 ± 0.016; (3.333 µM) 0.347 ± 0.0097; (10 µM) 0.224 ± 0.0038.

As for `Cc1nc(NC(=O)N2CCC[C@H]2C(N)=O)sc1-c1ccnc(C(C)(C)C(F)(F)F)c1` [Alpelisib], the relative viability (0.00017 µM) came out at 0.955 ± 0.069; the relative viability (0.00051 µM) amounted to 0.949 ± 0.05; the relative viability (0.00152 µM) was found to be 0.95 ± 0.05; the relative viability (0.00457 µM) was 0.944 ± 0.046; the relative viability (0.01372 µM) is 0.894 ± 0.017; the relative viability (0.04115 µM) was 0.852 ± 0.028. The relative viability by setting is: (0.1235 µM) 0.733 ± 0.025; (0.3704 µM) 0.641 ± 0.029; (1.111 µM) 0.559 ± 0.0059; (3.333 µM) 0.485 ± 0.025; (10 µM) 0.375 ± 0.009.

For the molecule `Cn1cnc2c(F)c(Nc3ccc(Br)cc3F)c(C(=O)NOCCO)cc21` [Binimetinib], the relative viability by setting is: (0.00017 µM) 0.9413 ± 0.0039; (0.00051 µM) 0.9487 ± 0.0073; (0.00152 µM) 0.976 ± 0.024; (0.00457 µM) 0.969 ± 0.026; (0.01372 µM) 0.942 ± 0.025; (0.04115 µM) 0.938 ± 0.053. Besides, the relative viability came to 0.962 ± 0.043 (0.1235 µM); 0.919 ± 0.061 (0.3704 µM); 0.883 ± 0.026 (1.111 µM); 0.925 ± 0.034 (3.333 µM); 0.879 ± 0.042 (10 µM).

On to `CCc1cc2c(cc1N1CCC(N3CCOCC3)CC1)C(C)(C)c1[nH]c3cc(C#N)ccc3c1C2=O` [Alectinib], for which the relative viability runs as follows: (0.00017 µM) 0.9941 ± 0.0039; (0.00051 µM) 0.997 ± 0.011; (0.00152 µM) 0.993 ± 0.016; (0.00457 µM) 0.997 ± 0.025; (0.01372 µM) 0.988 ± 0.026; (0.04115 µM) 1 ± 0.029. In addition, the relative viability (0.1235 µM) turned out to be 1.03 ± 0.039; the relative viability (0.3704 µM) stood at 0.988 ± 0.036; the relative viability (1.111 µM) worked out at 1.04 ± 0.029; the relative viability (3.333 µM) stood at 1.04 ± 0.014; the relative viability (10 µM) came to 1.03 ± 0.034.
